Literature values in patent publication US9855261B2, “Polymeric compound having camptothecin compound and anti-cancer effect enhancer bound thereto, and use of same” (priority 2012, dated 2018).

Conditions: of its dose

For `CC[C@@]1(O)C(=O)OCc2c1cc1n(c2=O)Cc2cc3c(CN(C)C)c(O)ccc3nc2-1` [Topotecan], the “share of dose excreted renally” value is given as 20-40%.
